Measured values as given in patent publication US20170370929A1, “POSITIVE ALLOSTERIC MODULATORS OF THE DELTA-OPIOID RECEPTOR” (BRISTOL-MYERS SQUIBB COMPANY, priority 2014, published 2017).

Legend:
δ receptor = δ receptor (Homo sapiens, UniProt P41143); assay: PathHunter β-arrestin recruitment assay in CHO-OPRD1 cells; type: cell-based
μ receptor = μ receptor (Homo sapiens, UniProt P35372); assay: PathHunter β-arrestin recruitment assay in CHO-OPRM1 cells; type: cell-based; conditions: PAM mode, up to the highest concentration tested (10 μM)
Chain of μ receptor (P35372 whole entry): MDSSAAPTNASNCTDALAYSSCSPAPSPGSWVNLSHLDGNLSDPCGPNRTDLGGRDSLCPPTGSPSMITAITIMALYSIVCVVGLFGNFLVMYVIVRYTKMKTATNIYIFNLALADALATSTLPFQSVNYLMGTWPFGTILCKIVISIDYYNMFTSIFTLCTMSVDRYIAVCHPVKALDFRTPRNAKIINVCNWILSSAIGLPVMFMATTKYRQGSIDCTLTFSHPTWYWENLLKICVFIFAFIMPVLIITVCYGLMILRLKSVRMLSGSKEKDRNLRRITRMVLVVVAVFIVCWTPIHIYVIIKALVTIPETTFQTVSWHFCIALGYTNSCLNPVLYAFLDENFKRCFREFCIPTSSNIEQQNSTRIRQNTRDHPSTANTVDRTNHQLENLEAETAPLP

Chain of δ receptor (P41143 whole entry): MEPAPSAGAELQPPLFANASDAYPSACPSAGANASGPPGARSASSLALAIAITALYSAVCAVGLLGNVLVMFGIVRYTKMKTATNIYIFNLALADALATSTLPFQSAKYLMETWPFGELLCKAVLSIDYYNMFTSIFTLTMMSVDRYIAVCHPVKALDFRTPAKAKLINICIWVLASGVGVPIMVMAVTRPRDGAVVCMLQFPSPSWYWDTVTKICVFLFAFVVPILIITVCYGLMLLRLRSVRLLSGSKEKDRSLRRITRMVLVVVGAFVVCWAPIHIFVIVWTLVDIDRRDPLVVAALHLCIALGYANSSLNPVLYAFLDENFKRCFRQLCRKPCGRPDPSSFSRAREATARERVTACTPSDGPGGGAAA

In the case of `CC1(C)CC(=O)C2=C(C1)OC1=C(C(=O)CC(C)(C)C1)C2c1ccc(OCc2ccccc2)cc1` [Analog 1], the EC50 (δ receptor; PAM mode, in the presence of an EC20 of leu-enkephalin, CHO-OPRD1 cells) is reported as 200 nM and the “selectivity compared with PAM activity at the μ receptor” value (δ receptor; β-arrestin recruitment assay, δ versus μ receptor PAM activity) is reported as 30 fold.
In the case of `CC1(C)CC(=O)C2=C(C1)OC1=C(C(=O)CC(C)(C)C1)C2c1ccc(OCc2ccccc2Br)cc1` [Analog 10, 9-(4-((2-bromobenzyl)oxy)phenyl)-3,3,6,6-tetramethyl-3,4,5,6,7,9-hexahydro-1H-xanthene-1,8(2H)-dione], the “PAM activity at the δ receptor (in words)” value (δ receptor; PAM mode, β-arrestin recruitment) is reported as “equipotent PAM activity to 2” and the “PAM activity at the μ receptor” value (μ receptor) is reported as “no observable PAM activity”.
